The results in this text go back to US10851067B2, “Kv7 channel activators compositions and methods of use” (Knopp Biosciences LLC, priority 2018, dated 2020).

For the assay, the target named is Kv7.2/7.3 (Homo sapiens, UniProt O43525+O43526). Briefly: Kv7.2/7.3 Activation Assay, QPatch single concentration screen. Format: cell-based. Further details: host or cells: HEK cells, tetracycline-inducible expression; key: 1.2-2.9 (+); 3-3.9 (++); >4 (+++) fold increase over baseline; O represents open channel at holding potential. As to conditions: Kv7.2/Kv7.3 co-expressing HEK cells, compound concentration 3 μM, steady-state current at end of 2 s pulse to −30 mV. The gist of the method:
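Tetracycline-induced HEK cells expressing human Kv7.2/7.3, recorded 24 h post-induction by automated planar patch clamp. From −80 mV, 2 s steps to −30 mV then 100 ms to −120 mV; compound tested at 3 μM (0.1% DMSO). Steady-state current at end of −30 mV step gives fold increase over baseline.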
On the technique in general: In patch-clamp work, channel activity is measured electrically.
Consider `CC(C)(O)c1ccc2nc(NC(=O)Cc3cccc(F)c3)n(C3(C)CCC3)c2c1` [Example 435, 2-(3-fluorophenyl)-N-(6-(2-hydroxypropan-2-yl)-1-(1-methylcyclobutyl)-1H-benzo[d]imidazol-2-yl)acetamide], for which the “Kv7.2/7.3 Activity: increase over baseline in current” value (from here on “Kv7.2/7.3 Activity: increase”) is listed as “O”.

In the case of `CC(C)(C)CC(=O)Nc1nc2cc(F)cc(C#N)c2n1C1(C)CCC1` [Example 436, N-(7-cyano-5-fluoro-1-(1-methylcyclobutyl)-1H-benzo[d]imidazol-2-yl)-3,3-dimethylbutanamide], the “Kv7.2/7.3 Activity: increase” value is listed as “++ (3-3.9 (++))”.

As to `CC(C)(C)CC(=O)Nc1nc2cc(F)c(C#N)cc2n1C1(C)CCC1` [Example 437, N-(6-cyano-5-fluoro-1-(1-methylcyclobutyl)-1H-benzo[d]imidazol-2-yl)-3,3-dimethylbutanamide], the “Kv7.2/7.3 Activity: increase” value is given as “++ (3-3.9 (++))”.

For the compound `CC(C)(C)CC(=O)Nc1nc2c(F)cc(C(C)(C)O)c(F)c2n1C1CCC1` [Example 438, N-(1-cyclobutyl-4,7-difluoro-6-(2-hydroxypropan-2-yl)-1H-benzo[d]imidazol-2-yl)-3,3-dimethylbutanamide], the “Kv7.2/7.3 Activity: increase” value is on record as “O”.

As to `CC(C)(C)CC(=O)Nc1nc2ccc(Cl)c(C#N)c2n1C1CCC1` [Example 439, N-(6-chloro-7-cyano-1-cyclobutyl-1H-benzo[d]imidazol-2-yl)-3,3-dimethylbutanamide], the “Kv7.2/7.3 Activity: increase” value is “+ (1.2-2.9 (+))”.

Turning to `CC(C)(C)CC(=O)Nc1nc2ccc(C(C)(C)O)cc2n1CC(F)(F)F` [Example 440, N-(6-(2-hydroxypropan-2-yl)-1-(2,2,2-trifluoroethyl)-1H-benzo[d]imidazol-2-yl)-3,3-dimethylbutanamide], the “Kv7.2/7.3 Activity: increase” value was “+ (1.2-2.9 (+))”.

Consider `C[C@H](C(=O)Nc1nc2c(F)cc(C(C)(C)O)cc2n1C1CCC1)C(C)(C)C` [Example 443, (S)-N-(1-cyclobutyl-4-fluoro-6-(2-hydroxypropan-2-yl)-1H-benzo[d]imidazol-2-yl)-2,3,3-trimethylbutanamide], for which the “Kv7.2/7.3 Activity: increase” value is given as “++ (3-3.9 (++))”.

Regarding `CC(C)(C)n1c(NC(=O)CC(C)(C)C(F)(F)F)nc2ccc(C#N)c(F)c21` [Example 444, N-(1-(tert-butyl)-6-cyano-7-fluoro-1H-benzo[d]imidazol-2-yl)-4,4,4-trifluoro-3,3-dimethylbutanamide], the “Kv7.2/7.3 Activity: increase” value is recorded as “++ (3-3.9 (++))”.

Take `CC(C)(C)CC(=O)Nc1nc2c(F)cc(C(C)(O)C3CC3)cc2n1C1CCC1` (stereo not drawn) [Example 445, N-(1-cyclobutyl-6-(1-cyclopropyl-1-hydroxyethyl)-4-fluoro-1H-benzo[d]imidazol-2-yl)-3,3-dimethylbutanamide]: the “Kv7.2/7.3 Activity: increase” value is recorded as “++ (3-3.9 (++))”.

On to `COC(=O)Cc1c(F)ccc2nc(NC(=O)CC(C)(C)C)n(C3CCC3)c12` [Example 447, methyl 2-(1-cyclobutyl-2-(3,3-dimethylbutanamido)-6-fluoro-1H-benzo[d]imidazol-7-yl)acetate], for which the “Kv7.2/7.3 Activity: increase” value is “+++ (>4 (+++) fold increase over baseline)”.

As for `[2H]C([2H])([2H])C(CC(=O)Nc1nc2ccc(C(C)(C)O)cc2n1C1CCC1)(C([2H])([2H])[2H])C([2H])([2H])[2H]` [Example 448, N-(1-cyclobutyl-6-(2-hydroxypropan-2-yl)-1H-benzo[d]imidazol-2-yl)-3,3-bis(methyl-d3)butanamide], the “Kv7.2/7.3 Activity: increase” value was “++ (3-3.9 (++))”.

Regarding `CC(C)(C)CC(=O)Nc1nc2cc(F)ccc2n1C1CCC1` [Example 449, N-(1-cyclobutyl-5-fluoro-1H-benzo[d]imidazol-2-yl)-3,3-dimethylbutanamide], the “Kv7.2/7.3 Activity: increase” value is on record as “++ (3-3.9 (++))”.

As to `CC(C)(C)CC(=O)Nc1nc2cc(C(C)(C)O)c(C(F)(F)F)cc2n1C1CCC1` [Example 450, N-(1-cyclobutyl-5-(2-hydroxypropan-2-yl)-6-(trifluoromethyl)-1H-benzo[d]imidazol-2-yl)-3,3-dimethylbutanamide], the “Kv7.2/7.3 Activity: increase” value is “+ (1.2-2.9 (+))”.

In the case of `CC(C)(C)CC(=O)Nc1nc2ccc(C3(O)CCC3)c(F)c2n1C1CCC1` [Example 451, N-(1-cyclobutyl-7-fluoro-6-(1-hydroxycyclobutyl)-1H-benzo[d]imidazol-2-yl)-3,3-dimethylbutanamide], the “Kv7.2/7.3 Activity: increase” value was “O”.

As to `CC(C)(CC(=O)Nc1nc2cc(F)cc(F)c2n1C1CCC1)C(F)(F)F` [Example 453, N-(1-cyclobutyl-5,7-difluoro-1H-benzo[d]imidazol-2-yl)-4,4,4-trifluoro-3,3-dimethylbutanamide], the “Kv7.2/7.3 Activity: increase” value was “++ (3-3.9 (++))”.

In the case of `CN(C)c1ccc2nc(NC(=O)CC(C)(C)C)n(C3CCC3)c2c1F` [Example 454, N-(1-cyclobutyl-6-(dimethylamino)-7-fluoro-1H-benzo[d]imidazol-2-yl)-3,3-dimethylbutanamide], the “Kv7.2/7.3 Activity: increase” value is recorded as “+++ (>4 (+++) fold increase over baseline)”.

As to `C[C@H](C(=O)Nc1nc2ccc(C(C)(C)O)cc2n1C12CC(C1)C2)C(C)(C)C` [Example 455, (S)-N-(1-(bicyclo[1.1.1]pentan-1-yl)-6-(2-hydroxypropan-2-yl)-1H-benzo[d]imidazol-2-yl)-2,3,3-trimethylbutanamide], the “Kv7.2/7.3 Activity: increase” value is recorded as “++ (3-3.9 (++))”.

On to `CC(C)(O)c1cc(F)c2nc(NC(=O)CC(C)(C)C(F)F)n(C3CCC3)c2c1` [Example 456, N-(1-cyclobutyl-4-fluoro-6-(2-hydroxypropan-2-yl)-1H-benzo[d]imidazol-2-yl)-4,4-difluoro-3,3-dimethylbutanamide], for which the “Kv7.2/7.3 Activity: increase” value is “++ (3-3.9 (++))”.

In the case of `CC(C)(C)CC(=O)Nc1nc2c(F)cc(C#N)c(F)c2n1C(C)(C)C` [Example 457, N-(1-(tert-butyl)-6-cyano-4,7-difluoro-1H-benzo[d]imidazol-2-yl)-3,3-dimethylbutanamide], the “Kv7.2/7.3 Activity: increase” value is recorded as “++ (3-3.9 (++))”.

On to `COc1cccc2nc(NC(=O)CC(C)(C)C3CC3)n(C3CCC3)c12` [Example 458, N-(1-cyclobutyl-7-methoxy-1H-benzo[d]imidazol-2-yl)-3-cyclopropyl-3-methylbutanamide], for which the “Kv7.2/7.3 Activity: increase” value is on record as “+++ (>4 (+++) fold increase over baseline)”.

As to `CC(C)(C)CC(=O)Nc1nc2c(F)cc(OC(F)F)cc2n1C1(C)CCC1` [Example 459, N-(6-(difluoromethoxy)-4-fluoro-1-(1-methylcyclobutyl)-1H-benzo[d]imidazol-2-yl)-3,3-dimethylbutanamide], the “Kv7.2/7.3 Activity: increase” value is on record as “+++ (>4 (+++) fold increase over baseline)”.

`CC1(n2c(NC(=O)CC(C)(C)C(F)(F)F)nc3c(F)cc(OC(F)F)cc32)CCC1` [Example 461, N-(6-(difluoromethoxy)-4-fluoro-1-(1-methylcyclobutyl)-1H-benzo[d]imidazol-2-yl)-4,4,4-trifluoro-3,3-dimethylbutanamide]: the “Kv7.2/7.3 Activity: increase” value was “+ (1.2-2.9 (+))”.

`CC(C)(CC(=O)Nc1nc2c(F)cc(C#N)c(F)c2n1C1CCC1)C1CC1` [Example 464, N-(6-cyano-1-cyclobutyl-4,7-difluoro-1H-benzo[d]imidazol-2-yl)-3-cyclopropyl-3-methylbutanamide]: the “Kv7.2/7.3 Activity: increase” value is listed as “++ (3-3.9 (++))”.

Turning to `COc1cc(F)c2nc(NC(=O)CC(C)(C)C)n(C3CCC3)c2c1` [Example 469, N-(1-cyclobutyl-4-fluoro-6-methoxy-1H-benzo[d]imidazol-2-yl)-3,3-dimethylbutanamide], the “Kv7.2/7.3 Activity: increase” value was “+++ (>4 (+++) fold increase over baseline)”.

Take `CC(C)(O)c1c(F)cc2nc(NC(=O)CC(C)(C)C(F)(F)F)n(C3CCC3)c2c1F` [Example 470, N-(1-cyclobutyl-5,7-difluoro-6-(2-hydroxypropan-2-yl)-1H-benzo[d]imidazol-2-yl)-4,4,4-trifluoro-3,3-dimethylbutanamide]: the “Kv7.2/7.3 Activity: increase” value is on record as “+ (1.2-2.9 (+))”.

As to `CC(C)(O)c1ccc2nc(NC(=O)CC(C)(C)C3CC3)n(C34CC(C3)C4)c2c1` [Example 472, N-(1-(bicyclo[1.1.1]pentan-1-yl)-6-(2-hydroxypropan-2-yl)-1H-benzo[d]imidazol-2-yl)-3-cyclopropyl-3-methylbutanamide], the “Kv7.2/7.3 Activity: increase” value was “+++ (>4 (+++) fold increase over baseline)”.

In the case of `CC(C)(C)CC(=O)Nc1nc2cccc(C#N)c2n1C1(C)CCC1` [Example 473, N-(7-cyano-1-(1-methylcyclobutyl)-1H-benzo[d]imidazol-2-yl)-3,3-dimethylbutanamide], the “Kv7.2/7.3 Activity: increase” value is reported as “++ (3-3.9 (++))”.

For the compound `CC1(CC(=O)Nc2nc3c(F)cc(C(C)(C)O)cc3n2C2(C)CCC2)CC1` [Example 474, N-(4-fluoro-6-(2-hydroxypropan-2-yl)-1-(1-methylcyclobutyl)-1H-benzo[d]imidazol-2-yl)-2-(1-methylcyclopropyl)acetamide], the “Kv7.2/7.3 Activity: increase” value is given as “O”.

For the compound `CC(C)(C)CC(=O)Nc1nc2ccc(N3CC(F)(F)C3)c(F)c2n1C1CCC1` [Example 475, N-(1-cyclobutyl-6-(3,3-difluoroazetidin-1-yl)-7-fluoro-1H-benzo[d]imidazol-2-yl)-3,3-dimethylbutanamide], the “Kv7.2/7.3 Activity: increase” value is on record as “++ (3-3.9 (++))”.

Take `COc1cccc2nc(NC(=O)CC(C)(C)C)n(C3CCC3)c12` [Example 476, N-(1-cyclobutyl-7-methoxy-1H-benzo[d]imidazol-2-yl)-3,3-dimethylbutanamide]: the “Kv7.2/7.3 Activity: increase” value is reported as “+ (1.2-2.9 (+))”.
